From patent EP4385508A1, “FURAN FATTY ACIDS FOR ENHANCING MUSCLE MASS” (Centre de Coopération Internationale en Recherche …, priority 2022, dated 2024)

Experiments:
Assay type in all cases: cell-based, Mouse
[1] = tested on: ULK1; assay: ULK1 phosphorylation and total level by Western blot in C2C12 myotubes; settings: highest dose (50 µM)
Protocol: (§1) Mouse myoblasts of the C2C12 cell line (ATCC) were seeded at a plating density of 7000 cells/cm2 in 6-well plates. They were grown in DMEM high glucose (4.5g/l) supplemented with gentamycin (50 µg/mL), amphotericin (50 µg/mL), and fetal calf serum (10%). Terminal differentiation was induced at cell confluence by lowering the medium serum concentration (0.5%).
(§2) When indicated, FuFA-F2 was added to the culture medium at the indicated concentration. For the differentiation studies, FuFA-F2 was added at the confluence at the same time as the change in media condition. Three doses of FuFA-F2 were studied at a final concentration of 1, 10, or 50 µM. Human insulin was used at a concentration of 100 nM.
(§3) Protein levels were assessed by Western blotting. Total proteins were measured using the Bio-Rad protein assay (Hercules, CA, USA) according to the manufacturer's instructions. […]
(§4) AMP activated protein kinase (AMPK) is a crucial cellular energy sensor protein and is activated when intracellular ATP level decreases to regulate autophagy initiation (Hardie et al., 2012, Nat Rev Mol Cell Bio, Vol. 13 (4) : 251-262). […] The autophagy-related signaling was further evaluated by measuring the MTORC1 mediated phosphorylation […] at Ser757 which disrupts the interaction between ULK1 and AMPK. […] Therefore, the autophagic flux was assessed by measuring the conversion of LC3-I to LC3-II, through lipidation.

[2] = tested on: myosin heavy chain (MyHC); assay: Slow and fast MyHC protein levels by Western blot in C2C12 myotubes
Protocol: as §1, §2
Protein levels were assessed by Western blotting. Total proteins were measured using the Bio-Rad protein assay (Hercules, CA, USA) according to the manufacturer's instructions. Total proteins were lysed in RIPA buffer (20mM Tris, 150mM NaCl, 1mM EDTA, 1% NP40, pH 7.5 + complete cocktail protease inhibitors + Pierce phosphatase inhibitors tablet). 40 µg of cell extracts were loaded and blotted onto a nitrocellulose membrane. The membranes were washed, blocked with 5% nonfat milk and incubated in primary antibody overnight at 4°C. […]
(Figure 5A), commonly used as a quantitative marker of intact mitochondria. […]

[3] = tested on: LC3-II/LC3-I; assay: Autophagic flux, conversion of LC3-I to LC3-II by Western blot in C2C12 myotubes; settings: whatever the dose
Protocol: as §1, §2, §3, §4

[4] = tested on: AMP activated protein kinase (AMPK); assay: AMPK phosphorylation by Western blot in C2C12 myotubes; settings: whatever the dose
Protocol: as §1, §2, §3, §4

[5] = tested on: mTOR (Ser2448); assay: mTOR phosphorylation by Western blot in C2C12 myotubes
Protocol: as §1, §2
Protein levels were assessed by Western blotting. Total proteins were measured using the Bio-Rad protein assay (Hercules, CA, USA) according to the manufacturer's instructions. Total proteins were lysed in RIPA buffer (20mM Tris, 150mM NaCl, 1mM EDTA, 1% NP40, pH 7.5 + complete cocktail protease inhibitors + Pierce phosphatase inhibitors tablet). 40 µg of cell extracts were loaded and blotted onto a nitrocellulose membrane. The membranes were washed, blocked with 5% nonfat milk and incubated in primary antibody overnight at 4°C. The membranes were then washed in TBS-Tween (10mM Tris, 140mM NaCl, and 0.2% Tween-20), incubated with the appropriate secondary antibody coupled to horseradish peroxidase, and washed again in TBS-Tween. […] Touch Software (version 5.2.1) (Hercules, CA, USA). […]
It is shown that FuFA-F2 increased protein accretion in myotubes. Protein homeostasis is determined by the dynamic balance between protein synthesis and degradation. Protein synthesis was evaluated by measuring the phosphorylation of Akt (Ser473), mTOR (Ser2448) and 4E-BP1 (Thr37/46), which are major regulators of translation and protein synthesis. […]

In the case of `CCCCCc1cc(C)c(CCCCCCCCC(=O)O)o1` [FuFA-F2], the “ULK1 phosphorylation at Ser757” value [1] is reported as “decreased”, the “total Ulk level” value [1] is reported as “also decreased” and the “expression of slow MyHC” value ([2]; 10 µM) is reported as “significantly increased”. The “fast MyHC” value ([2]; highest dose (50 µM)) was “decrease”, the “ratio of LC3-II/LC3-I” value [3] was “decreased” and the “Activation level of AMPK, phosphorylation at Thr172” value [4] was “significantly decreased”. The “mTOR phosphorylation at Ser2448” value ([5]; 3-day pretreatment, 2 hours low-glucose medium, then treatment for 30 minutes, insulin alone 100 nM) was “significant increase”, the mTOR phosphorylation ([5]; high glucose medium, 3 days, with or without FuFA-F2) was “no difference” and the “rapid effect on mTOR phosphorylation” value ([5]; without pretreatment, 30 min incubation after low-glucose medium) was “not observed”.
